Results as given in PubChem BioAssay (NCI).
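Results reflect a 48-hour exposure of cells in 96-well plates to compound at five concentrations. GI50 marks 50% less growth. Definition used: TGI = concentration required for complete inhibition of growth.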

Assays:
Assay in all cases: NCI tumour cell line growth inhibition, 48 h
SK-MEL-28 melanoma = tested on: SK-MEL-28 melanoma
K-562 leukemia = tested on: K-562 leukemia
SNB-75 CNS = tested on: SNB-75 CNS
KM12 colon = tested on: KM12 colon
SK-MEL-5 melanoma = tested on: SK-MEL-5 melanoma
SNB-19 CNS = tested on: SNB-19 CNS
NCI-H522 lung = tested on: NCI-H522 lung
HCT-116 colon = tested on: HCT-116 colon
HOP-62 NSCLC = tested on: HOP-62 NSCLC
HCT-15 colon = tested on: HCT-15 colon
OVCAR-8 ovarian = tested on: OVCAR-8 ovarian
HOP-92 NSCLC = tested on: HOP-92 NSCLC
MOLT-4 leukemia = tested on: MOLT-4 leukemia
CCRF-CEM leukemia = tested on: CCRF-CEM leukemia
A549 NSCLC = tested on: A549 NSCLC
M14 melanoma = tested on: M14 melanoma
RPMI-8226 leukemia = tested on: RPMI-8226 leukemia
SN12C renal = tested on: SN12C renal
NCI-H226 lung = tested on: NCI-H226 lung
UACC-257 melanoma = tested on: UACC-257 melanoma
CAKI-1 renal = tested on: CAKI-1 renal
LOX IMVI melanoma = tested on: LOX IMVI melanoma
SF-539 CNS = tested on: SF-539 CNS
SW-620 colon = tested on: SW-620 colon
HT29 colon = tested on: HT29 colon
DU-145 prostate = tested on: DU-145 prostate
HL-60(TB) leukemia = tested on: HL-60(TB) leukemia
NCI-H460 lung = tested on: NCI-H460 lung
NCI/ADR-RES ovarian = tested on: NCI/ADR-RES ovarian
MDA-MB-435 = tested on: MDA-MB-435
MCF7 breast = tested on: MCF7 breast
SF-295 CNS = tested on: SF-295 CNS
U251 CNS = tested on: U251 CNS
PC-3 prostate = tested on: PC-3 prostate
A498 renal = tested on: A498 renal
T-47D breast = tested on: T-47D breast
TK-10 renal = tested on: TK-10 renal
SR leukemia = tested on: SR leukemia
OVCAR-4 ovarian = tested on: OVCAR-4 ovarian
SK-OV-3 ovarian = tested on: SK-OV-3 ovarian
SF-268 CNS = tested on: SF-268 CNS
786-0 renal = tested on: 786-0 renal
RXF 393 renal = tested on: RXF 393 renal
HS 578T breast = tested on: HS 578T breast
ACHN renal = tested on: ACHN renal
UO-31 renal = tested on: UO-31 renal
OVCAR-5 ovarian = tested on: OVCAR-5 ovarian
MDA-MB-231 breast = tested on: MDA-MB-231 breast
COLO 205 colon = tested on: COLO 205 colon
HCC-2998 colon = tested on: HCC-2998 colon
OVCAR-3 ovarian = tested on: OVCAR-3 ovarian
SK-MEL-2 melanoma = tested on: SK-MEL-2 melanoma
IGROV1 ovarian = tested on: IGROV1 ovarian
NCI-H23 lung = tested on: NCI-H23 lung
UACC-62 melanoma = tested on: UACC-62 melanoma
BT-549 breast = tested on: BT-549 breast
EKVX NSCLC = tested on: EKVX NSCLC

## NC(=O)c1cc(Cl)ccc1NC(=O)COc1ccccc1
SK-MEL-28 melanoma
  GI50: 6.25 µM
  TGI: > 100 µM
K-562 leukemia
  GI50: 0.854 µM
  TGI: > 100 µM
SNB-75 CNS
  GI50: 1.81 µM
  TGI: 23 µM
KM12 colon
  GI50: 2.13 µM
  TGI: > 100 µM
SK-MEL-5 melanoma
  GI50: 7.45 µM
  TGI: > 100 µM
SNB-19 CNS
  GI50: 11.7 µM
  TGI: > 100 µM
NCI-H522 lung
  GI50: 3.78 µM
  TGI: > 100 µM
HCT-116 colon
  GI50: 2.72 µM
  TGI: > 100 µM
HOP-62 NSCLC
  GI50: 5.88 µM
  TGI: > 100 µM
HCT-15 colon
  GI50: 1.57 µM
  TGI: > 100 µM
OVCAR-8 ovarian
  GI50: 7.06 µM
  TGI: > 100 µM
HOP-92 NSCLC
  GI50: 5.7 µM
  TGI: > 100 µM
MOLT-4 leukemia
  GI50: 8.14 µM
  TGI: > 100 µM
CCRF-CEM leukemia
  GI50: 3.07 µM
  TGI: > 100 µM
A549 NSCLC
  GI50: 7.06 µM
  TGI: > 100 µM
M14 melanoma
  GI50: 2.21 µM
  TGI: > 100 µM
RPMI-8226 leukemia
  GI50: 4.33 µM
  TGI: > 100 µM
SN12C renal
  GI50: 17 µM
  TGI: > 100 µM
NCI-H226 lung
  GI50: > 100 µM
  TGI: > 100 µM
UACC-257 melanoma
  GI50: > 100 µM
  TGI: > 100 µM
CAKI-1 renal
  GI50: 4.18 µM
  TGI: > 100 µM
LOX IMVI melanoma
  GI50: 8.33 µM
  TGI: > 100 µM
SF-539 CNS
  GI50: 1.8 µM
  TGI: 5.2 µM
SW-620 colon
  GI50: 2.58 µM
  TGI: > 100 µM
HT29 colon
  GI50: 1.74 µM
  TGI: > 100 µM
DU-145 prostate
  GI50: 6.01 µM
  TGI: > 100 µM
HL-60(TB) leukemia
  GI50: 3.29 µM
  TGI: 70.7 µM
NCI-H460 lung
  GI50: 3 µM
  TGI: > 100 µM
NCI/ADR-RES ovarian
  GI50: 1.43 µM
  TGI: 20.9 µM
MDA-MB-435
  GI50: 0.356 µM
  TGI: 2.22 µM
MCF7 breast
  GI50: 1.81 µM
  TGI: > 100 µM
SF-295 CNS
  GI50: 1.96 µM
  TGI: 41.6 µM
U251 CNS
  GI50: 2.34 µM
  TGI: > 100 µM
PC-3 prostate
  GI50: 3.22 µM
  TGI: > 100 µM
A498 renal
  GI50: 1.41 µM
  TGI: 9.27 µM
T-47D breast
  GI50: 6.88 µM
  TGI: > 100 µM
TK-10 renal
  GI50: 63.8 µM
  TGI: > 100 µM
SR leukemia
  GI50: 0.777 µM
  TGI: > 100 µM
OVCAR-4 ovarian
  GI50: > 100 µM
  TGI: > 100 µM
SK-OV-3 ovarian
  GI50: 8.15 µM
  TGI: > 100 µM
SF-268 CNS
  GI50: 9.89 µM
  TGI: > 100 µM
786-0 renal
  GI50: 9.54 µM
  TGI: > 100 µM
RXF 393 renal
  GI50: 3.93 µM
  TGI: 39.4 µM
HS 578T breast
  GI50: 4.65 µM
  TGI: > 100 µM
ACHN renal
  GI50: 10.7 µM
  TGI: > 100 µM
UO-31 renal
  GI50: 17.9 µM
  TGI: > 100 µM
OVCAR-5 ovarian
  GI50: 3.86 µM
  TGI: > 100 µM
MDA-MB-231 breast
  GI50: 9.02 µM
  TGI: > 100 µM
COLO 205 colon
  GI50: 2.51 µM
  TGI: 14.4 µM
HCC-2998 colon
  GI50: 12.1 µM
  TGI: > 100 µM
OVCAR-3 ovarian
  GI50: 2.3 µM
  TGI: 10 µM
SK-MEL-2 melanoma
  GI50: 5.08 µM
  TGI: > 100 µM
IGROV1 ovarian
  GI50: 5.6 µM
  TGI: > 100 µM
NCI-H23 lung
  GI50: 5.9 µM
  TGI: > 100 µM
UACC-62 melanoma
  GI50: 5.42 µM
  TGI: > 100 µM

## N#CC(C#N)=C1/C(=C/C=C/C=C/C=C/c2ccc(N3CCCCC3)s2)S(=O)(=O)c2ccccc21
SK-MEL-28 melanoma
  TGI: > 100 µM
K-562 leukemia
  TGI: > 100 µM
SNB-75 CNS
  TGI: > 100 µM
KM12 colon
  TGI: > 100 µM
SK-MEL-5 melanoma
  TGI: > 100 µM
SNB-19 CNS
  TGI: > 100 µM
NCI-H522 lung
  TGI: > 100 µM
HCT-116 colon
  TGI: > 100 µM
HOP-62 NSCLC
  TGI: > 100 µM
HCT-15 colon
  TGI: > 100 µM
OVCAR-8 ovarian
  TGI: > 100 µM
HOP-92 NSCLC
  TGI: > 100 µM
MOLT-4 leukemia
  TGI: 63 µM
CCRF-CEM leukemia
  TGI: > 100 µM
A549 NSCLC
  TGI: > 100 µM
M14 melanoma
  TGI: > 100 µM
RPMI-8226 leukemia
  TGI: > 100 µM
SN12C renal
  TGI: > 100 µM
NCI-H226 lung
  TGI: > 100 µM
UACC-257 melanoma
  TGI: > 100 µM
BT-549 breast
  TGI: > 100 µM
CAKI-1 renal
  TGI: > 100 µM
LOX IMVI melanoma
  TGI: > 100 µM
SF-539 CNS
  TGI: > 100 µM
SW-620 colon
  TGI: > 100 µM
HT29 colon
  TGI: > 100 µM
DU-145 prostate
  TGI: > 100 µM
HL-60(TB) leukemia
  TGI: > 100 µM
NCI-H460 lung
  TGI: > 100 µM
NCI/ADR-RES ovarian
  TGI: > 100 µM
MDA-MB-435
  TGI: > 100 µM
MCF7 breast
  TGI: > 100 µM
SF-295 CNS
  TGI: > 100 µM
U251 CNS
  TGI: > 100 µM
PC-3 prostate
  TGI: > 100 µM
A498 renal
  TGI: > 100 µM
T-47D breast
  TGI: > 100 µM
TK-10 renal
  TGI: > 100 µM
SR leukemia
  TGI: > 100 µM
OVCAR-4 ovarian
  TGI: > 100 µM
SK-OV-3 ovarian
  TGI: > 100 µM
786-0 renal
  TGI: > 100 µM
RXF 393 renal
  TGI: > 100 µM
ACHN renal
  TGI: > 100 µM
OVCAR-5 ovarian
  TGI: > 100 µM
EKVX NSCLC
  TGI: > 100 µM
MDA-MB-231 breast
  TGI: > 100 µM
COLO 205 colon
  TGI: > 100 µM
HCC-2998 colon
  TGI: > 100 µM
OVCAR-3 ovarian
  TGI: > 100 µM
SK-MEL-2 melanoma
  TGI: > 100 µM
IGROV1 ovarian
  TGI: > 100 µM
NCI-H23 lung
  TGI: > 100 µM
UACC-62 melanoma
  TGI: > 100 µM
